Experimental data as given in patent US5504190A, “Equimolar multiple oligomer mixtures, especially oligopeptide mixtures” (priority 1994, dated 1996).
In brackets after ≈: the same amount, converted by molar mass.

Each molecule was assayed on Escherichia coli (ATCC 25922) (assay: antimicrobial assay, growth inhibition of E. coli (OD 620 nm)). Conditions: Tables 1 and 2.
Format: cell-based
Experimental: (§1) Escherichia coli (ATCC 25922) was used as Gram-negative (-) and Staphylococcus aureus (ATCC 29213) as Gram-positive (+) bacteria. Bacteria were grown overnight (about 18 hours) at 37° C. in Mueller-Hinton (MH) broth. This culture was reinoculated and incubated at 37° C. to reach the exponential phase of bacteria growth; i.e., a final bacterial suspension containing about 10^5 to 5×10^5 colony-forming units (CFU)/ml. The concentration of cells was established by plating 100 μl of different dilutions of the culture solution (e.g., 10^-2, 10^-3 and 10^-4) onto solid agar plates. Following an overnight (about 18 hours) incubation at 37° C., the CFU thus formed were counted on each agar plate.
(§2) 96-Well tissue culture plates were utilized, with eight wells per plate containing only medium as control blanks, whereas eight other wells contained medium plus cells as a positive growth control. These controls were used to detect possible medium contamination and to provide a measure of uninhibited growth of the microorganisms.
(§3) For initial screening studies, oligopeptide sets were added to the bacterial suspension to reach a final concentration of 1 mg/ml.
(§4) The plates were incubated overnight (about 18 hours) at 37° C., and the optical density (OD) determined at 620 nm after different times of incubation.

Row | Molecule | IC-50 [µg/mL] | MIC [µg/mL]
1 | Ac-FRWLLH-NH2 [FRWLLH] | 17 | 20 to 40
2 | Ac-FRWLLV-NH2 [FRWLLV] | 24 | 40 to 80
3 | Ac-FRWWHF-NH2 [FRWWHF] | 30 | 31 to 62
4 | Ac-FRWWHH-NH2 [FRWWHH] | 31 | 34 to 62
5 | Ac-FRWWHK-NH2 [FRWWHK] | 15 | 16 to 32
6 | Ac-FRWWHL-NH2 [FRWWHL] | 31 | 62 to 125
7 | Ac-FRWWHR-NH2 [FRWWHR] | 13 | 16 to 32
8 | Ac-FRWWHW-NH2 [FRWWHW] | 27 | 62 to 125
9 | Ac-RRWWMA-NH2 [RRWWMA] | 18 | 20 to 32
10 | Ac-RRWWMC-NH2 [RRWWMC] | 12 | 31 to 62
11 | Ac-RRWWMF-NH2 [RRWWMF] | 18 | 20 to 32
12 | Ac-RRWWMG-NH2 [RRWWMG] | 9 | 10 to 16
13 | Ac-RRWWMH-NH2 [RRWWMH] | 24 | 31 to 62
14 | Ac-RRWWMI-NH2 [RRWWMI] | 12 | 16 to 32
15 | Ac-RRWWMK-NH2 [RRWWMK] | 14 | 16 to 32
16 | Ac-RRWWML-NH2 [RRWWML] | 15 | 16 to 32
17 | Ac-RRWWMM-NH2 [RRWWMM] | 18 | 20 to 32
18 | Ac-RRWWMN-NH2 [RRWWMN] | 25 | 31 to 62
19 | Ac-RRWWMP-NH2 [RRWWMP] | 26 | 31 to 62
20 | Ac-RRWWMR-NH2 [RRWWMR] | 9 | 10 to 16
21 | Ac-RRWWMS-NH2 [RRWWMS] | 17 | 20 to 32
22 | Ac-RRWWMT-NH2 [RRWWMT] | 18 | 20 to 32
23 | Ac-RRWWMV-NH2 [RRWWMV] | 15 | 16 to 32
24 | Ac-RRWWMW-NH2 [RRWWMW] | 15 | 16 to 32
25 | Ac-RRWWMY-NH2 [RRWWMY] | 15 | 16 to 32

The molecules below were run on Staphylococcus aureus (ATCC 29213) (assay: microbe, parasite or virus in culture). Conditions: 7-mer studies, Tables 5 and 6 and parent 6-mer.
Experimental: as §1, §2, §3, §4

Row | Molecule | IC-50 [µg/mL] | MIC [µg/mL]
26 | Ac-CRRWWRF-NH2 [CRRWWRF] | 6.3 | 8 to 16
27 | Ac-FRRWWRF-NH2 [FRRWWRF] | 5.9 | 8 to 16
28 | Ac-LRRWWRF-NH2 [LRRWWRF] | 6.1 | 8 to 16
29 | Ac-RRRWWRF-NH2 [RRRWWRF] | 8 | 8 to 16
30 | Ac-RRWWRF-NH2 [RRWWRF, Ac-Arg-Arg-Trp-Trp-Arg-PheNH2] | 8.7 | –
31 | Ac-RRWWRFC-NH2 [RRWWRFC] | 6.2 | 8 to 16
32 | Ac-RRWWRFI-NH2 [RRWWRFI] | 6.9 | 8 to 16
33 | Ac-RRWWRFL-NH2 [RRWWRFL] | 5.9 | 8 to 16
34 | Ac-RRWWRFR-NH2 [RRWWRFR] | 7.9 | 8 to 16
35 | Ac-RRWWRFV-NH2 [RRWWRFV] | 7.9 | 8 to 16
36 | Ac-RRWWRFY-NH2 [RRWWRFY] | 7.6 | 8 to 16

Same assay, conditions: ATCC 29213, 18 h

Row | Molecule | MIC [µg/mL]
37 | Ac-RRWWCR-NH2 [RRWWCR, Ac-Arg-Arg-Trp-Trp-Cys-Arg-NH2] | 3.906
38 | Ac-RRWWRF-NH2 [RRWWRF, Ac-Arg-Arg-Trp-Trp-Arg-PheNH2] | 8 to 16

Same assay, conditions: Staphylococcus aureus, ATCC29213

Row | Molecule | MIC [µg/mL]
39 | CC1(C)S[C@@H]2[C@H](NC(=O)[C@H](N)c3ccccc3)C(=O)N2[C@H]1C(=O)O [Ampicillin, reference compound] | 4 (≈ 11.4 µM)
40 | CC[C@H]1OC(=O)[C@H](C)[C@@H](O[C@H]2C[C@@](C)(OC)[C@@H](O)[C@H](C)O2)[C@H](C)[C@@H](O[C@@H]2O[C@H](C)C[C@H](N(C)C)[C@H]2O)[C@](C)(O)C[C@@H](C)C(=O)[C@H](C)[C@@H](O)[C@]1(C)O [Erythromycin, reference compound] | 0.5 (≈ 0.681 µM)
41 | CN(C)[C@@H]1C(O)=C(C(N)=O)C(=O)[C@@]2(O)C(O)=C3C(=O)c4c(O)cccc4[C@@](C)(O)[C@H]3C[C@@H]12 [Tetracycline, reference compound] | 0.5 (≈ 1.13 µM)

Same assay, conditions: Table 7, separate study

Row | Molecule | MIC [µg/mL]
42 | CC1(C)S[C@@H]2[C@H](NC(=O)Cc3ccccc3)C(=O)N2[C@H]1C(=O)O [Penicillin G, reference compound] | 32 (≈ 95.7 µM)
43 | Bacitracin A [reference compound] | 16
44 | Gentamicin C [reference compound] | 0.5
45 | Neomycin [reference compound] | 1

Same assay, conditions: Tables 3 and 4

Row | Molecule | IC-50 [µg/mL] | MIC [µg/mL]
46 | Ac-FRWLLC-NH2 [FRWLLC] | 15 | 13 to 26
47 | Ac-FRWLLL-NH2 [FRWLLL] | 18 | 16 to 31
48 | Ac-FRWLLW-NH2 [FRWLLW] | 14 | 12 to 24
49 | Ac-FRWWHF-NH2 [FRWWHF] | 16 | 31 to 62
50 | Ac-FRWWHI-NH2 [FRWWHI] | 21 | 31 to 62
51 | Ac-FRWWHK-NH2 [FRWWHK] | 30 | 31 to 62
52 | Ac-FRWWHL-NH2 [FRWWHL] | 9.3 | 16 to 32
53 | Ac-FRWWHR-NH2 [FRWWHR] | 18 | 16 to 32
54 | Ac-FRWWHW-NH2 [FRWWHW] | 23 | 31 to 62
55 | Ac-RRWWCS-NH2 [RRWWCS] | 5.9 | 7 to 14
56 | Ac-RRWWCT-NH2 [RRWWCT] | 7.9 | 4.9 to 10
57 | Ac-RRWWCV-NH2 [RRWWCV] | 4.9 | 3.8 to 7.7
58 | Ac-RRWWRA-NH2 [RRWWRA] | 14 | 18 to 36
59 | Ac-RRWWRC-NH2 [RRWWRC] | 8.2 | 10 to 19
60 | Ac-RRWWRF-NH2 [RRWWRF, Ac-Arg-Arg-Trp-Trp-Arg-PheNH2] | 5.5 | 6 to 9
61 | Ac-RRWWRI-NH2 [RRWWRI] | 12 | 12 to 23
62 | Ac-RRWWRL-NH2 [RRWWRL] | 12 | 13 to 26

What follows are molecules tested on Candida albicans ATCC 10231 (assay: antifungal assay, growth inhibition of C. albicans (OD 620 nm)). Conditions: Candida albicans, ATCC10231.
Format: cell-based
Experimental: Antifungal studies were carried out Candida albicans ATCC 10231 as the target microbe. The yeast culture was spread onto YM agar plates and incubated at 30° C. for 48 hours. Three colonies of this culture (about 1 mm in diameter each) were then inoculated in 5 ml of 1 X PBS solution. The suspension was vortexed and diluted 10-fold in YM broth, for an approximate final concentration of 10^5 to 5×10^5 CFU (colony forming units)/ml.
Actual concentrations of yeast cultures were determined by plating 100 μl of different solutions of the culture solution (10^-3, 10^-4 and 10^-5) onto solid YM agar plates. After 48 hours of incubation at 30° C., CFU formed were counted from each plate.
The assays were carried out in 96-well tissue culture plates. Eight wells containing only medium of YM broth served as negative controls, whereas eight wells containing medium and yeast culture served as positive controls. These controls were used to detect possible medium contamination and to provide a measure of uninhibited growth of the yeast.
For screening studies, oligopeptide mixtures were added to the yeast suspension in duplicates to reach a final concentration of 1.5 mg/ml. […] The plates were incubated over a period of 48 hours at 30° C., and the optical density (OD) at 24 and 48 hours was determined at 620 nm.

Row | Molecule | MIC [µg/mL]
63 | C[C@@H]1[C@H](O)[C@@H](C)/C=C/C=C/CC/C=C/C=C/C=C/C=C/[C@H](O[C@@H]2O[C@H](C)[C@@H](O)[C@H](N)[C@@H]2O)C[C@@H]2O[C@](O)(C[C@@H](O)[C@H](O)CC[C@@H](O)C[C@@H](O)C[C@@H](O)CC(=O)O[C@H]1C)C[C@H](O)[C@H]2C(=O)O [Nystatin, reference compound] | 2 to 4 (≈ 2.16 to 4.32 µM)

Same assay, conditions: Candida albicans, ATCC10231; Table 9

Row | Molecule | IC50 [µg/mL]
64 | C[C@@H]1[C@H](O)[C@@H](C)/C=C/C=C/C=C/C=C/C=C/C=C/C=C/[C@H](O[C@@H]2O[C@H](C)[C@@H](O)[C@H](N)[C@@H]2O)C[C@@H]2O[C@](O)(C[C@@H](O)C[C@@H](O)[C@H](O)CC[C@@H](O)C[C@@H](O)CC(=O)O[C@H]1C)C[C@H](O)[C@H]2C(=O)O [Amphotericin B, reference compound] | 0.5 (≈ 0.541 µM)

Same assay, conditions: Candida albicans, ATCC10231; Table 9; read-out: MIC

Row | Molecule | MIC [µg/mL]
65 | C[C@@H]1[C@H](O)[C@@H](C)/C=C/C=C/C=C/C=C/C=C/C=C/C=C/[C@H](O[C@@H]2O[C@H](C)[C@@H](O)[C@H](N)[C@@H]2O)C[C@@H]2O[C@](O)(C[C@@H](O)C[C@@H](O)[C@H](O)CC[C@@H](O)C[C@@H](O)CC(=O)O[C@H]1C)C[C@H](O)[C@H]2C(=O)O [Amphotericin B, reference compound] | 2 to 4 (≈ 2.16 to 4.33 µM)

Same assay, conditions: Table 9

Row | Molecule | IC-50 [µg/mL] | MIC [µg/mL]
66 | Ac-KRRWWRF-NH2 [KRRWWRF] | 40 | 45 to 62
67 | Ac-RRWWCVR-NH2 [RRWWCVR] | 50 | 50 to 62
68 | Ac-RRWWRFK-NH2 [RRWWRFK] | 46 | 50 to 62
69 | Ac-RRWWRFR-NH2 [RRWWRFR] | 45 | 50 to 62
70 | Ac-RRWWRH-NH2 [RRWWRH] | 30.1 | 40 to 80
